Assays:
[1] = system: HH-25 cells; assay: DNA laddering assay (apoptosis) in hepatocytes; conditions: 1 hour treatment, concentrations as in maturation studies, refed 6 hours
Description: Cells were treated with either TNF-α, sphingomyelinase or C2-ceramide for 1 hour at concentrations identical to those used in the SREBP-1 maturation studies. The cells were then washed twice with minimal essential medium and refed with media A for 6 hours. […] Genomic DNA was electrophoresed and stained with ethidium bromide.

[2] = system: SREBP-1; assay: SREBP-1 proteolysis (maturation) assay, Western immunoblot of nuclear fractions, HH-25 hepatocytes; format: cell-based, human; conditions: for increase in mass of the mature form of SREBP-1: sterol supplemented media
Description: FIGS. 2A-2C illustrate effects of TNF-α sphingomyelinase and C2-ceramide on the kinetics of SREBP-1 maturation—FIGS. 2A-2C is explained in more detail as follows: Cells were maintained in media supplemented with 1 μg/ml 25-hydroxy cholesterol and 15 μg/ml cholesterol for 24 hours before the experiment. The cells were treated for the indicated time as described in materials and methods. The cells were then harvested in PBS, pelleted and frozen. Lysis and nuclear fractionation were performed as described. Nuclear fractions (50 μg of protein) were electrophoresed on a 7.5% polyacrylamide gel and transferred to a PVDF membrane. Western blotting was performed as described. Band intensity was quantified via densitometry. Error bars represent ±one standard deviation from the mean. 2A) The kinetics of SREBP maturation as measured by the increase in mature SREBP-1 are plotted. Fold increase was calculated by comparing each time point to the corresponding control value (TNF-α is represented by stippled bars, bacterial sphingomyelinase is represented by light gray bars and C2-ceramide by the dark bars.) 2B) Cells were treated with TNF-α (10 ng/ml) and prepared as described above. The bands corresponding to the precursor and mature forms of SREBP-1 were quantified and their ratio plotted. 2C) Representative Western blots from which numerical data was derived. Incubation time is indicated above and applies to all conditions. The membranes were exposed to film for 15 seconds. P and M denote the precursor and mature forms of SREBP-1 respectively.
FIGS. 3A-3C show effects of TNF-α, sphingomyelinase and C2-ceramide concentration on SREBP-1 maturation—The FIGS. 3A-3C are explained in more detail as follows. […] Nuclear pellets were prepared and electrophoresed (50 μg of protein). The bands corresponding to the precursor and mature forms of SREBP-1 were quantified. The precursor to mature ratios were normalized to a single control to facilitate comparison. The control ratio was arbitrarily assigned a value of 1. A Unit of sphingomyelinase activity hydrolyzes 1.0 μmol of sphingomyelin per minute at 37° C. FIG. 3A (ng/ml TNF-α); FIG. 3B (mUnits of sphingomyelinase); FIG. 3C (micromolar C2-ceramide).
HH-25 cells were grown in alpha-minimal essential media supplemented with 100 units/ml penicillin, 100 µg/ml streptomycin, […], 0.1 μM selenium, 5.5 μg/ml transferrin, 0.5 μg/ml linoleic acid and 10% fetal bovine serum (media A). The cells were incubated in serum free F10 media for 30 to 60 minutes prior to initiating treatment with TNF-α, C2-ceramide or sphingomyelinase.
Following treatment, the cells were washed with 5 ml of PBS and pelleted at 1500×g for 10 minutes at 4° C. The pellet was stored at −70° C. and lysed in 0.5 ml buffer A (10 mM HEPES pH 7.4, 5 mM EDTA, 0.25 mM EGTA, 50 mM NaF, 7 mM β-mercaptoethanol, 0.35M sucrose, 0.1% NP-40 and protease inhibitors 1 mM PMSF, 2 μg/ml aprotinin, 10 μg/ml leupeptin and 5 μg/ml pepstatin). The lysate was centrifuged at 12,000×g for 15 minutes at 4° C. to prepare a nuclear fraction. The protein concentration of these samples was determined by the method of Lowry et al. al. (19).
50 μg of nuclear protein was separated by gel electrophoresis on a 7.5% polyacrylamide gel. Gels were calibrated by high range molecular weight markers (Bio-Rad product #161-0303, New York, N.Y.) which were transferred to a polyvinyl difluoride (PVDF) membrane and visualized with coomassie staining. Rabbit polyclonal antibodies against SREBP-1 were used at 0.5 μg/ml according to the instructions of the manufacturer. The antibody was visualized with horseradish peroxidase conjugated anti-rabbit IgG made in donkey (Amersham) using the Enhanced Chemiluminescence (ECL) Western Blotting Detection System Kit (Amersham). PVDF membranes were exposed to Hyperfilm ECL (Amersham) for the indicated time. Immunoblots were quantified via densitometry performed on a PDI densitometer scanner (model 20J7) coupled to a SPARC IRC workstation.

[3] = system: SREBP-1; assay: Electrophoretic mobility shift assay, SREBP-1 binding to SRE probe; format: cell-based, human; conditions: for amount of probe bound (electrophoretically retarded) by mature SREBP-1: TNF-α 10 ng/ml, sphingomyelinase 100 mUnits, C2-ceramide 10 μM
Description: FIGS. 6A-6D show electrophoretic mobility shift assays. FIGS. 6A-D are explained in more detail as follows. Cells were maintained in sterol supplemented media. Nuclear pellets were prepared and assayed as described in materials and methods. Probe that has been bound by mature SREBP-1 is indicated as “Bound”. Unbound probe is indicated as “Free”. The kinetics (in minutes) of SREBP-1 binding to the probe in response to treatment with (FIG. 6A). TNF-α (10 ng/ml), (FIG. 6B) sphingomyelinase (100 mUnits) and (FIG. 6C) C2-ceramide ([…]). (FIG. 6D). The cells were treated with either TNF-α (10 ng/ml), sphingomyelinase (100 mUnits) or C2-ceramide (10 μM) for 15 minutes. Supershift assays were then performed with antibodies raised against the DNA binding domain of SREBP-1. The presence or absence of antibody is indicated by (+) and (−) respectively. Pre-immune IgG was used as a control.
Gel mobility shift assays were performed as follows. Each 20 μl reaction mixture contained 8-10 μg of nuclear protein plus a α-[^32P]-labeled 25-base pair oligonucleotide probe containing the SREBP-binding site (14) in binding buffer (10 mM Hepes, pH 7.5, 0.5 mM spermidine, 0.15 mM EDTA, 10 mM dithiothreitol, 0.35 mM sucrose). The reaction mixture was incubated at room temperature for 15 min and loaded directly onto a 6.5% polyacrylamide (49:0.6 acrylamide/bisacrylamide) gel in a buffer of 25 mM Tris borate (pH 8.0), 0.25 mM EDTA. In some experiments, antisera specific for SREBP or preimmune sera were added to reaction mixtures to determine the composition of protein-probe complexes. For these “supershift” assays, extracts were incubated with 1 μl of preimmune sera or an equal volume of anti-SREBP antisera at 4° C. for 30 min prior to addition of α-[^32P]-labeled probe. In all experiments, proteins were separated by electrophoresis at 200 V for 2 h at room temperature. Gels were dried and exposed to Kodak XAR film with intensifying screens. Assays were repeated with nuclear extracts obtained from three unique experiments and evaluated by phosphoimage analysis to ensure reproducibility of results.

amount of probe bound (electrophoretically retarded) by mature SREBP-1 [3]	rate of accumulation of active, nuclear SREBP-1 compared with TNF-α or sphingomyelinase [3]	Compound	induction of apoptosis (160 bp DNA ladder) [1]	concentration giving maximal effect on SREBP-1 maturation [2] [ng/mL]	dependence of extent of SREBP-1 maturation on concentration [2]	maximal decrease in the precursor to mature SREBP-1 ratio ([2]; 45 minutes after TNF-α (10 ng/ml) was added) [fold]	increase in mass of the mature form of SREBP-1 ([2]; after 5 minutes of incubation) [fold]	increase in mass of the mature form of SREBP-1 ([2]; after 15 minutes of treatment) [fold]	Emax ([2]; Homo sapiens, Hepatocyte, 1 μM of C2-ceramide, read-out: percent of maximal effect on SREBP-1 maturation) [%]	persistence of the increase in mature SREBP-1 ([2]; after 60 minutes)
increases with time		TNF-α	did not induce apoptosis	10	did not vary appreciably with concentration	1.5	2	3		
increases	more rapid accumulation	CCCCCCCCCCCCC/C=C/[C@@H](O)[C@H](CO)NC(C)=O [C2-ceramide, N-acetylsphingosine, reference compound]	did not induce apoptosis						81	persistent elevation

Source: patent US6713057B1, “Compositions and methods for modulating serum cholesterol” (The Johns Hopkins University, priority 1999, dated 2004)
